Read-outs that look alike come from different tables or passages of the source.
Experiments:
[1] = tested on: human hippocampal stem cells; experiment: Cell proliferation, Alamar Blue staining of live cells; format: cell-based; conditions: seven days of compound treatment; relative to vehicle control
Method: FIG. 1 is a bar graph illustrating an example of a proliferation profile of compounds selected from primary screening. Proliferation is measured after compound treatment for seven days by Alamar Blue staining of live cells per well. Shown are relative values over the vehicle control.
Neural stem cells and progenitor cells differentiate spontaneously in the absence of a mitogen; therefore, undifferentiated mitotic cells are harvested by enzyme treatment to remove residual mitogen, such as basic fibroblast growth factor (bFGF) used in expansion and proliferation of the cells. In one embodiment of the present invention, undifferentiated human hippocampal stem cells (e.g., HH580)/progenitor cells are harvested by enzyme treatment.
The collected cells are seeded for attachment of the cells such as standard 96-well or 384-well plates, pre-coated with extracellular matrix proteins, such as poly-D-lysine and fibronectin (e.g., Biocoat PDL, Fisher). The initial seeding density can be within the range of about 2,000-125,000 cells per well of a 96-well plate. The preferred density, however, is 40,000 cells per well of a 96-well plate which has been optimized for best signal-to-noise ratio as described in pending U.S. patent application Ser. No. 10/728,652. Cell density that is too low retards the initiation of differentiation and results in poor plating efficiency which interferes with the assay. Cell density that is too high leads to inhibition of neurogenesis due to cell-to-cell interaction and paracrine factors which also interfere with the assay. […] For example, for a 384-well plate which has approximately one-fourth of the surface area of a 96-well plate, the initial seeding density should be decreased by one-fourth accordingly.
The cells are passaged and grown for seven days in 15 cm plates in full growth medium according to Neuralstem protocol with 50% of the media changed every other day. Following centrifugation, the call pellet is re-suspended in N2b medium and enough N2b medium is added to the cell suspension to achieve a concentration of […]. The N2b seeding media includes a standard serum-free, growth factor-free, basal media without phenol red that supports healthy neuronal/glial survival. Fibronectin and PBS is completely removed by aspiration from wells of fibronectin-coated 96-well plate(s). 100 μl of N2b medium with or without 2× concentration of screening agents or compounds to be tested are added to each well. Subsequently, 100 μl of the cell suspension is added to each well at a density of 40,000 cells per well. The cell suspension is incubated for two days at 37° C. in the presence of 5% CO2.
On Days 2, 4, and 6 of post-plating, incremental additions of the compounds are made to each well at appropriate concentrations. Therefore, after two days, 100 μl of N2b medium is removed from the wells, and 100 μl of the N2b medium is added. Likewise, on days four and six, 100 μl of N2b medium is removed from the wells and 100 μl of the N2b medium is added, and the cell suspension is again incubated at 37° C. in the presence of 5% CO2.
On day seven, the final day of the culture, a fluorescent dye such as Alamar Blue dye is added to each well. Alamar Blue dye detects metabolic respiration and is a reflection of total cellular activity indicating changes in cell number of neurons. In this regard, 20 μl of Alamar Blue (Biosource International DAL 1025) is added to each well and incubated for two hours at 37° C. in the presence of 5% CO2.
As a preliminary detection of positive activities, the overall immunostaining intensity in each well is read by a fluorescence plate reader. For instance, the fluorescence of the oxidized dye in each well is read by a fluorescent plate reader such as the Molecular Devices Fluorometric Plate Reader. The reader is set on the Read Mode End Point setting at an excitation of 530 nm, an emission of 590 nm, and a cutoff 570 nm. […]

[2] = tested on: Differentiating human hippocampal stem cells; experiment: Neurogenesis dose-response profile; format: cell-based; conditions: for activity at 0.3 µM: @300 nM; for activity at 30 µM: @30000 nM; for activity at 10 µM: @10000 nM; for activity at 1 µM: @1000 nM; for activity at 3 µM: @3000 nM; for activity at 0.001 µM: @1 nM
Method: FIG. 4 is a line graph illustrating an example of a neurogenesis dose-response profile of selected compounds. Differentiating human hippocampal stem cells were treated for seven days with varying concentrations of “primary hits”. Subsequently, the cells were fixed, stained with anti-beta tubulin antibody, and positive cells were quantified by Array Scan II. Shown are the number of neurons after each treatment normalized against the no-compound control.
In another in vitro assay, compounds are tested as above at varying concentrations to obtain a dose-response curve and EC50 values (effective concentration of the compound which produces 50% of the maximum possible response for that compound).
Primary dose-response profiles and secondary functional assays are used to further eliminate compounds from the primary screen based on a lack of dose-dependent effect on neurogenesis, indicated by lack of linearity of dose-response, and in vitro neurotoxicity. The dose-response curve measures neurogenesis over a concentration range of 100 pM to 100 μM. […] Table II contains the summary of EC50 of each compound tested.

[3] = Homo sapiens, Neuron, 168 h, normalized against no-compound control, read-out: Neuron# Eff
[4] = Homo sapiens, Neuron, 168 h, seven days, 100 pM to 100 μM
[5] = Homo sapiens, Neuron, 168 h, read-out: % Neuron Ratio Eff

Row | EC50 [2, 4] | SMILES | % Prolif (Alamar) [1] | activity at 0.3 µM [2, 3] | activity at 30 µM [2, 3] | activity at 30 µM [2, 5] | further results
1 | 0.07 nM | CCCCNc1c(C2CCN(C(=O)CN(CC(C)C)S(C)(=O)=O)CC2)nc2cnccn12 [NSI-106] | 211 ± 48% | 157% | – | – | activity at 0.1 µM ([2]; Homo sapiens, Neuron, 168 h, @100 nM, read-out: % Neuron Ratio Eff): 165%
2 | 1.5 nM | CS(=O)(=O)N1CCCCC1C(=O)NCc1ccc(Nc2c(C3CC3)nc3ccccn23)cc1 (centres unmarked) [NSI-127] | 181 ± 14% | – | 137% | – | activity at 0.01 µM ([2]; Homo sapiens, Neuron, 168 h, @10 nM, read-out: % Neuron Ratio Eff): 114%
3 | 2160 nM | COc1ccc(CCNc2ncc(C(N)=O)c(NC3CC3)n2)cc1OC [NSI-130] | 92 ± 33% | – | – | 144% | activity at 10 µM [2, 3]: 202%
4 | > 1000 nM | CCCNc1ncc(C(N)=O)c(NC2CCCC2)n1 [NSI-137] | 108 ± 28% | – | 145% | 126% | –
5 | 0.001 nM | O=C(c1cccnc1N1CCNCC1)N1CCN(Cc2ccncc2)CC1 [NSI-142] | 115 ± 13% | – | 175% | 123% | –
6 | 4.8 nM | O=C(NC1CCN(Cc2ccccc2)CC1)c1cccnc1N1CCNCC1 [NSI-143] | 97 ± 16% | – | 115% | 112% | –
7 | 13.5 nM | NC(=O)c1cnc(NCc2ccc(Cl)cc2)nc1NCC1CCCCC1 [NSI-144] | 149 ± 15% | 186% | – | – | activity at 0.3 µM [2, 5]: 138%
8 | < 0.1 nM | CCCCNc1c(C2CCN(C(=O)c3ccc(C#N)cc3)CC2)nc2ccccn12 [NSI-149] | 216 ± 28% | – | – | – | activity at 1 µM [2, 3]: 124%; activity at 1 µM [2, 5]: 111%
9 | 85 nM | C=CCNC(=O)c1cccnc1NCc1ccccc1OC [NSI-150] | 177 ± 44% | – | – | 112% | activity at 3 µM [2, 3]: 227%
10 | > 1000 nM | CC(C)(C)OC(=O)NCCNC(=O)c1cccnc1NCC1CCCCC1 [NSI-157] | 218 ± 140% | – | – | 146% | activity at 10 µM [2, 3]: 113%
11 | 0.2 nM | NC(=O)C1CCCN1C(=O)c1cccnc1NCC1CCCCC1 (centres unmarked) [NSI-158] | 236 ± 79% | 145% | – | – | activity at 3 µM [2, 5]: 106%
12 | 0.05 nM | O=C(COc1ccccc1)NCc1nc2ccccn2c1NCC1CCCO1 (centres unmarked) [NSI-183] | 69 ± 18% | 140% | – | – | activity at 0.001 µM [2, 5]: 112%; % Neuron Ratio EC50 ([2]; seven days, 100 pM to 100 μM): No Curve
13 | 786 nM | CS(=O)(=O)N(CC(=O)NCc1nc2ccccn2c1NCc1ccccc1)c1ccccc1 [NSI-185] | 73 ± 26% | – | – | 112% | activity at 3 µM [2, 3]: 132%
14 | 253 nM | CC(C)CCNc1ncccc1C(=O)N1CCN(Cc2ccccc2)CC1 [NSI-189] | 70 ± 21% | – | 165% | 141% | –
15 | 13 nM | CCN(CCNC(=O)c1cccnc1NCCC(C)C)Cc1cccnc1 [NSI-190] | 76 ± 14% | 165% | – | – | activity at 0.001 µM [2, 5]: 128%

Row | SMILES | EC50 [2, 4] | % Prolif (Alamar) [1] | activity at 0.3 µM [2, 3] | activity at 30 µM [2, 3] | activity at 30 µM [2, 5] | further results
16 | O=C(NCc1nc2ccccn2c1NCC1CCCO1)Oc1ccccc1 (centres unmarked) [NSI-182] | 0.1 nM | 74 ± 8% | 123% | – | – | activity at 10 µM [2, 5]: 112%

Source: US8846914B2, “Compositions to effect neuronal growth” (Neuralstem, Inc., priority 2003, dated 2014)
